Measured values reported in PMC9973354 (mBio, 2022).
“And” between values parts separate entries of the source, which are not always exact repeats. Equal values may be shown once. Starred links: 1 amine or outer side, 2 acyl side, 3 side chain; linkers in the order of their positions; H or OH if unused. Positions of bridges follow the written chain, without caps; N, C: chain ends. Non-standard residues stand in square brackets, D forms with d. Residues, ends and D or L forms follow the SMILES beside them. ξ: configuration not given here. X1 = O=C([C@@H]1CCN=C2C(N[*:1])=Cc3cc(O)c(O)cc3N21)[*:2]; ξOrn(N(OH)CHO) = NC(CCCN(O)C=O)C(=O)O; Suc = O=C(CCC(=O)[*:2])[*:1]; ξK = NCCCCC(N)C(=O)O; ξS = NC(CO)C(=O)O

Legend:
[1] = molecular target: T1, FpvB R191A R648C (Pseudomonas aeruginosa, UniProt A0A0H2ZFZ5, R191A/R648C); assay: Whole-cell fluorescence quenching, FpvB R191A R648C; assay type: binding; conditions: FpvB R191A R648C
T1 sequence (A0A0H2ZFZ5 23-802 R191A/R648C): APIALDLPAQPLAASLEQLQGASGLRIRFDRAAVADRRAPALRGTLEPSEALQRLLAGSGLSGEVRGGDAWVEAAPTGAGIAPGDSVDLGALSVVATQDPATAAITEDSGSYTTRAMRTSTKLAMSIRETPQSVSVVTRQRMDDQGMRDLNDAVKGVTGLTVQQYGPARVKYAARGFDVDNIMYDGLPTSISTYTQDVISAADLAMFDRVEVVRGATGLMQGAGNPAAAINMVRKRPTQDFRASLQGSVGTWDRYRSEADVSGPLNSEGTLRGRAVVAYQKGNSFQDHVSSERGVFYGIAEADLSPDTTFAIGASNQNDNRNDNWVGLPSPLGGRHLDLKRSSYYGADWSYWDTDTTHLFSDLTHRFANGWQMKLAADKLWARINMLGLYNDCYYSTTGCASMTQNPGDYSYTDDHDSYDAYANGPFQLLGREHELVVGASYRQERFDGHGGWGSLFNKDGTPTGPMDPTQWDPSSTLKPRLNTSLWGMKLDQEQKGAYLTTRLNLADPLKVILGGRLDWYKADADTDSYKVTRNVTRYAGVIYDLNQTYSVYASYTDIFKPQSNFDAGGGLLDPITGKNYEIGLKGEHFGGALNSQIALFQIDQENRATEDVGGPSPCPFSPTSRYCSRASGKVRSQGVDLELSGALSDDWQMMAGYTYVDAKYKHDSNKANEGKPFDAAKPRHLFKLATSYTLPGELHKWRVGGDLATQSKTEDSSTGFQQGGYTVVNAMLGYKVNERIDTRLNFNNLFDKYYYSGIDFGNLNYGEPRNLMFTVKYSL
Procedure: Quenching assays with the two xenosiderophores were repeated for the quadruple TBDT mutant expressing WT FpvB, FpvB R191A R648C, or W347V R648C.
Cells were cultured overnight in LB with carbenicillin (200 μg/mL) at 37°C with shaking at 200 rpm. Cells were subcultured (1:200 dilution) in 10:90 plus 2% arabinose for 4 h without carbenicillin at 37°C with shaking at 200 rpm. Cells were harvested by centrifugation for 5 min and 6,000 × g and resuspended in sterile 1× phosphate-buffered saline (PBS) (pH 7.4); 1× PBS was made from a 10× stock (80 g NaCl, 2 g KCl, 26.8 g Na2 HPO4-7H2O, 2.4 g KH2PO4 in 1 L of deionized H2O) with 10 μM Alexa Fluor 594 C5 maleimide for microscopy or fluorescein-5-maleimide for fluorescence quenching and recovery assays and incubated in the dark at room temperature for 30 min on a shaking incubator at 37°C (200 rpm). Excess dye was quenched with 1 mM dithiothreitol (DTT) (Sigma) to stop the reaction. Cells were washed 3× with PBS. For fluorescence recovery assays, cells were incubated with 1× PBS plus 0.4% glucose at 37°C with shaking at 200 rpm. Glucose was prepared as a 20% stock (wt/vol) in 1× PBS and filter sterilized. Cells were spun down and washed 3× with 1× PBS and resuspended in 1× PBS for quenching assays and 1× PBS plus 0.4% glucose for fluorescence recovery assays.
For fluorescence quenching and recovery assays, cells were diluted to an OD600 of 0.1 for both types of assays, and 148 μL was added into wells of a 96-well black plate (Corning). Fluorescence was recorded for 5 min at 1-min intervals at 37°C (BioTek Neo; excitation, 494 nm; emission, 520 nm). After 5 min, 2 μL of each serial dilution for ferrioxamine-Fe^3+, ferrichrome-Fe^3+, and pyoverdine-Fe^3+ or DMSO for vehicle controls was added to each well. Fluorescence was recorded immediately for quenching assays and for 1 h at 1-min intervals for fluorescence recovery assays. Background fluorescence was subtracted from all fluorescence readings and 1-F/F0 was used to calculate the degree of quenching, where F0 is the initial fluorescence. Kd was calculated using GraphPad Prism using a one-site specific binding model or a two-site model. For fluorescence recovery assays, background was subtracted from all fluorescence readings and F/F0 expressed as a percent of control was plotted versus time.

[2] = tested on: PA14 ΔfpvA ΔfpvB ΔfiuA ΔfoxA pHERD20T-fpvB R191A; assay: Growth of quadruple mutant expressing FpvB R191A; assay type: cell-based, Pseudomonas aeruginosa; conditions: 10:90 + 2% arabinose
Procedure: Site-directed mutagenesis was used to confirm the docking predictions and to define the molecular determinants for ligand uptake through FpvB (Fig. 4C). We generated 17 single amino acid substitutions in FpvB and expressed each of them in trans in the quadruple ΔfpvA ΔfpvB ΔfiuA ΔfoxA mutant. Their ability to complement growth of the mutant in the presence of ferrichrome and ferrioxamine B and to restore TS susceptibility was assessed. […] The mutant transporters were tagged with a C-terminal FLAG tag to evaluate expression levels. FLAG-tagged FpvB mutants had WT levels of expression except for Y216T and W347V, which were expressed at 140% and 25% of WT, respectively.
The ΔfpvA ΔfpvB ΔfiuA ΔfoxA mutant was complemented with WT fpvA, fpvB, fiuA, and foxA in trans as controls (Fig. 4E).
MIC assays were conducted as previously described ([13], [14]). Overnight cultures were grown in LB from a glycerol stock at 37°C with shaking (200 rpm). Subcultures in 10:90 (1:100 dilution) were cultured for 4 h. Cells were adjusted to an optical density at 600 nm (OD600) of 0.1/500 in 10:90. All compounds were serially diluted 2-fold in dimethyl sulfoxide (DMSO) or H2O at 75× the final concentration. […] The next day, the OD600 was determined with a plate reader (Thermo Scientific) and normalized to percent of growth of the vehicle control after subtracting the OD600 from blank media.

[3] = tested on: FpvB; assay: Western blot of FLAG-tagged FpvB expression after compound treatment; assay type: cell-based, Pseudomonas aeruginosa; conditions: WT PA14 fpvB-FLAG; 10 μg/mL siderophores, 64 μg/mL DSX, 10:90

Row | Structure (SMILES) | Kd ([1]; one-site model, read-out: Kd (converted)) | growth in the presence of siderophore [2] | stimulation of FpvB expression [3] | affinity (Kd not reached, no saturation at highest concentration) [1]
1 | CC(=O)N(O)CCCCCNC(=O)CCC(=O)N(O)CCCCCNC(=O)CCC(=O)N(O)CCCCCN [ferrioxamine B] | 535 µM and 480 µM | prevented growth | None of the compounds stimulated expression | –
2 | NCCCCC(NC(=O)C(CO)NC(=O)[C@@H]1CCN=C2C(NC(=O)CCC(=O)O)=Cc3cc(O)c(O)cc3N21)C(=O)NCC(=O)NC(CCCN(O)C=O)C(=O)NC1CCCCNC(=O)C(CO)NC(=O)C(CCCN(O)C=O)NC1=O (some centres unmarked) [pyoverdine] (Suc-[X1][ξS][ξK]G[ξOrn(N(OH)CHO)][ξK][ξOrn(N(OH)CHO)][ξS]; lactam 6-C) | – | – | None of the compounds stimulated expression | reduced affinity
